{
  "source": "patent US20250325528A1",
  "about": "“[…] ROLE OF mTORC1 INHIBITION OF NON-TUMOR CELLS” (THE BOARD OF REGENTS OF THE UNIVERSITY OF TEXAS SYSTEM, priority 2024, published 2025)",
  "key": {"[1]": {"test_system": "XP164 TGs", "assay": "Tumorgraft growth in different hosts, mixed-model analysis, XP164", "assay_type": "in vivo, mice", "experimental": "(§1) Tumor samples were collected from patients under IRB-approved protocol as previously described. 6-to-8-week-old NOD/SCID mice originally obtained from the UT Southwestern Breeding Core were implanted subcutaneously with patient-derived TGs. Calipers were used to measure tumor dimensions. Volume was calculated by multiplying width, length, and height, thereby minimizing the potential bias of disproportionately weighing one particular dimension (at the cost of overestimating tumor volumes). […] Tumors were measured weekly. As indicated, vehicle-treated tumors and rapamycin-sensitive tumors were harvested around 28 days. […] In accordance with UT Southwestern Institutional Animal Care and Use Committee policies, animals were euthanized once tumor diameters were larger than 2 cm.\n(§2) Bar charts and series plots are presented as the mean±standard error of the mean (SEM) from more than three independent experiments. Unless otherwise indicated, the statistical significance was determined by t-test using GraphPad Prism. For each XP line, ANOVA with post-hoc t-tests were used to test for differential (phospho)protein levels between the three arms in the RPPA analysis (vehicle-treated, rapamycin-sensitive, and rapamycin-resistant) with FDR-adjusted P-values. For the mixed model analysis, data were summarized as mean tumor growth per day with 95% confidence intervals, as well as by fold change between groups. A positive fold change indicates increased tumor growth rates in the first group compared to the second. Estimates were obtained from a three-way factorial mixed model analysis for treatment group, mouse type, and day of measurement. Baseline volume was also included as a term in the model to control for differences in starting volumes. An autoregressive (AR-1) covariance structure was used to account for the correlation among repeated measurements for each mouse. ANOVA and mixed model analyses were completed using SAS 9.4. A P-value <0.05 was considered significant.\n(§3) XP144, XP164 and XP490 were then implanted into NOD/SCID^mTOR-ST mice.\n(§4) The mTOR-ST mutation had the least effect on XP490. […] In Table 4, data are summarized with mean tumor growth rates per day (95% confidence intervals) with fold change between the two groups. A positive fold change indicates increased tumor growth rates in the first group. mTOR-WT, wild type mice; mTORST, heterozygous mTOR-ST mice; mTORST/ST, homozygous mTOR-ST mice. Rapa, rapamycin-treatment; Veh, vehicle-treatment"}, "[2]": {"settings": "following temsirolimus administration in patients; cited from earlier work"}, "[3]": {"test_system": "XP490 TGs", "assay": "Tumorgraft growth in different hosts, mixed-model analysis, XP490", "assay_type": "in vivo, mice", "experimental": "as §1, with “weekly.” for “weekly. As indicated, vehicle-treated tumors and rapamycin-sensitive tumors were harvested around 28 days.”\nas §2, with “For each XP line, ANOVA with post-hoc t-tests were used to test for differential (phospho)protein levels between the three arms in the RPPA analysis (vehicle-treated, rapamycin-sensitive, and rapamycin-resistant) with FDR-adjusted P-values.” left out\nas §3\nA positive fold change indicates increased tumor growth rates in the first group. mTOR-WT, wild type mice; mTORST, heterozygous mTOR-ST mice; mTORST/ST, homozygous mTOR-ST mice."}, "[4]": {"test_system": "XP144 TGs", "assay": "Tumorgraft growth in different hosts, mixed-model analysis, XP144", "assay_type": "in vivo, mice", "experimental": "as §1, §2, §3, §4"}},
  "data": [
    {"smiles": "CO[C@H]1C[C@@H]2CC[C@@H](C)[C@@](O)(O2)C(=O)C(=O)N2CCCC[C@H]2C(=O)O[C@H]([C@H](C)C[C@@H]2CC[C@@H](O)[C@H](OC)C2)CC(=O)[C@H](C)/C=C(\\C)[C@@H](O)[C@@H](OC)C(=O)[C@H](C)C[C@H](C)/C=C/C=C/C=C/1C", "note": "[rapamycin]", "values": [
      {"measurement": "effect on tumor growth", "setting": "[1]; XP164, NOD/SCID^mTOR-ST mice", "result": "no significant effect"},
      {"measurement": "Mean tumor growth per day (95% CI)", "setting": "[1]; XP164, mTOR^ST (heterozygous) mice", "result": "67.6 (57.2, 78.0) vs."},
      {"measurement": "Mean tumor growth per day (95% CI)", "setting": "[1]; XP164, mTOR^ST/ST (homozygous) mice", "result": "69.5 (58.5, 80.6) vs."},
      {"measurement": "Mean tumor growth per day (95% CI)", "setting": "[1]; XP164, mTOR^WT mice", "result": "18.3 (12.6, 24.0) vs."},
      {"measurement": "delay of tumor growth", "setting": "[1]; XP164, wild-type mice, vs vehicle", "result": 3.7, "unit": "fold"},
      {"measurement": "share of the circulating drug", "setting": "[2]", "result": 70, "unit": "%"},
      {"measurement": "inhibition of tumor growth", "setting": "[3]; XP490, mTOR-ST homozygous mice", "result": 2, "unit": "fold"},
      {"measurement": "Mean tumor growth per day (95% CI)", "setting": "[3]; XP490, mTOR^ST (heterozygous) mice", "result": "15.0 (11.7, 18.3) vs."},
      {"measurement": "Mean tumor growth per day (95% CI)", "setting": "[3]; XP490, mTOR^WT mice", "result": "5.1 (1.1, 9.1) vs."},
      {"measurement": "inhibition of tumor growth", "setting": "[3]; XP490, mice with the resistance mutation (heterozygous mTOR-ST)", "result": 6, "unit": "fold"},
      {"measurement": "reduction of tumor growth", "setting": "[3]; XP490, wild-type mice, vs vehicle", "result": 11, "unit": "fold"},
      {"measurement": "reduction of tumor growth inhibition in the resistant host", "setting": "[3]; third TG line, resistant host vs wild type", "result": "≤ 5", "unit": "fold"},
      {"measurement": "effect on tumor growth", "setting": "[4]; XP144, NOD/SCID^mTOR-ST mice", "result": "no significant effect"},
      {"measurement": "Mean tumor growth per day (95% CI)", "setting": "[4]; XP144, mTOR^ST (heterozygous) mice", "result": "54.6 (36.8, 72.4) vs."},
      {"measurement": "Mean tumor growth per day (95% CI)", "setting": "[4]; XP144, mTOR^WT mice, rapamycin 0.5 mg/kg IP every 48 hours", "result": "20.4 (10.5, 30.3) vs."},
      {"measurement": "reduction of tumor growth", "setting": "[4]; XP144, wild-type mice, vs vehicle", "result": 1.5, "unit": "fold"}
    ]}
  ]
}
